From publication PMC8779868, “Uncovering Novel Plasma Membrane Carboxylate Transporters in the Yeast Cyberlindnera jadinii” (Journal of Fungi, 2022) come the findings set out here.

In general, Km refers to the substrate concentration at which the rate is half of its maximum.

The structures appear in SMILES notation.

One experiment concerns the target T1, CjAto5 (Williopsis jadinii, UniProt A0A1E4RU05).
T1 construct: gene CYBJADRAFT_178915; full ORF in p416GPD, expressed in S. cerevisiae IMX1000; cloned from DSM 2361 DNA
T1 sequence (A0A1E4RU05 1-272): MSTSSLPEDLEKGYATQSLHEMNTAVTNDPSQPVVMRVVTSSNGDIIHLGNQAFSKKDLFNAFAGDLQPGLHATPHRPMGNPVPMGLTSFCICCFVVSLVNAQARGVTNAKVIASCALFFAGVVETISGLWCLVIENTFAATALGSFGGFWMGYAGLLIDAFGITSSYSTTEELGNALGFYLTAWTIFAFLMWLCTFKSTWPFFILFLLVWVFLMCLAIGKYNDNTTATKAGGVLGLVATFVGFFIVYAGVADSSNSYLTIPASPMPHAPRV
The experiment is described as follows: […]-succinate uptake, initial rates in S. cerevisiae IMX1000. The experiment is classed as cell-based. The following applies: pH 5.0, 30 °C; labelled compound.

A further experiment addresses T2, CjAto2 (Williopsis jadinii, UniProt A0A1E4S9G0).
T2 construct: gene CYBJADRAFT_7539; full ORF in p416GPD, expressed in S. cerevisiae IMX1000; cloned from DSM 2361 DNA
The description is as above. The format is cell-based. Particulars: pH 5.0, 30 °C; labelled compound.

T2 sequence (A0A1E4S9G0 1-262): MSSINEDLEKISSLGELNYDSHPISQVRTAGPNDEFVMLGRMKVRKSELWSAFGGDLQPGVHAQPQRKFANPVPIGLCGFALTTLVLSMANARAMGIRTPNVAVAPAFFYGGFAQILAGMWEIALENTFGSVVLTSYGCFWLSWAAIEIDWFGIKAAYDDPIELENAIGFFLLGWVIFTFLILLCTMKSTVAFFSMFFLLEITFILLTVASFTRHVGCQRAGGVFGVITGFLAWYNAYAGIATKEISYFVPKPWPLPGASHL

With `O=C(O)CCC(=O)O` [succinic acid], the Michaelis constant (Km) on CjAto5 was 450 ± 90 µM; on CjAto2, 3380 ± 820 µM.
